Experimental data reported in US12180192B2, “Modulators of THR-β and methods of use thereof” (ALIGOS THERAPEUTICS, INC., priority 2019, dated 2024).
Read-outs that look alike come from different tables or passages of the source.

Columns and labels:
[1] = biological target: T1, human thyroid receptor beta ligand-binding domain (LBD) (Homo sapiens, UniProt P10828); test: TR-FRET thyroid receptor beta coactivator assay (THR biochemical assay, Assay 1); details: for EC50: THR-beta, TR-FRET coactivator assay, read-out: Activity category Assay 1 (EC50, THR-beta agonist); for Emax: read-out: Activity category Assay 1 THRβ (Emax)
T1 construct: purchased Invitrogen
T1 sequence (P10828 217-461 limits assumed): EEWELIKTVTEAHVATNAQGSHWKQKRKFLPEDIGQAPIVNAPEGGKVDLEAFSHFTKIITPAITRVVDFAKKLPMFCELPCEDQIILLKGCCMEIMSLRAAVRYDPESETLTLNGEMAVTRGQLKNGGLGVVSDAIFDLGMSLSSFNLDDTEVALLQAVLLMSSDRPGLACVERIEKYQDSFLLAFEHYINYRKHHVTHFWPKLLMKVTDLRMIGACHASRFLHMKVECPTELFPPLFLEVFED
Procedure, shortened: (§1)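 Agonist-driven coactivator recruitment measured by TR-FRET: terbium anti-GST antibody (2 nM) bound to GST-LBD of TRβ or TRα (1 nM final, stated for β), with fluorescein SRC2-2 peptide at 200 nM. Compounds at 1% DMSO. Read after 1 h, room temperature, protected from light.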

[2] = biological target: T2, human thyroid receptor alpha ligand-binding domain (LBD) (Homo sapiens, UniProt P10827); test: TR-FRET thyroid receptor alpha coactivator assay (THR biochemical assay, Assay 1); details: for EC50: Table 4, THR-alpha, read-out: Activity category Assay 1 (EC50, THR-alpha agonist activity); for Emax: Table 5, THRα, read-out: Activity category Assay 1 THRα (Emax)
T2 construct: purchased Invitrogen
Procedure, shortened: as §1

[3] = biological target: T3, THR beta (Homo sapiens, UniProt P10828); test: HEK293T THR beta/RXR luciferase reporter assay (Assay 2); format: cell-based; details: for Emax: HEK-293T, read-out: Activity category Assay 2 THRβ (Emax); for EC50: THR-beta, HEK293T reporter assay, read-out: Activity category Assay 2 (EC50, THR-beta agonist)
T3 construct: expressed in transfected cells; host or cells: HEK293T (ATCC CRL-3216)
T3 sequence (P10828 1-461): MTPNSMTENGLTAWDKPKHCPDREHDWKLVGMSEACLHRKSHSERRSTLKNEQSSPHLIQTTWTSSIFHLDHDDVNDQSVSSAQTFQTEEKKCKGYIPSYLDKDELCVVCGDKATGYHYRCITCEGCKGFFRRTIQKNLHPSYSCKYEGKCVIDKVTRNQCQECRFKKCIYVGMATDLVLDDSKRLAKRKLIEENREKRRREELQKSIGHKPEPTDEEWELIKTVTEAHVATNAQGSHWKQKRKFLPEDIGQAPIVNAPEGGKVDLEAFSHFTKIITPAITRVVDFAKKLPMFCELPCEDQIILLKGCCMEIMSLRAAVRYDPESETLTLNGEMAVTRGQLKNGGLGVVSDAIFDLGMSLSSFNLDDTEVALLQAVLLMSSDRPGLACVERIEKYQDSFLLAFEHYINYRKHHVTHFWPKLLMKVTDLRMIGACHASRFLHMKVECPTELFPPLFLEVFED
T3 sequence (P19793 1-462 partner): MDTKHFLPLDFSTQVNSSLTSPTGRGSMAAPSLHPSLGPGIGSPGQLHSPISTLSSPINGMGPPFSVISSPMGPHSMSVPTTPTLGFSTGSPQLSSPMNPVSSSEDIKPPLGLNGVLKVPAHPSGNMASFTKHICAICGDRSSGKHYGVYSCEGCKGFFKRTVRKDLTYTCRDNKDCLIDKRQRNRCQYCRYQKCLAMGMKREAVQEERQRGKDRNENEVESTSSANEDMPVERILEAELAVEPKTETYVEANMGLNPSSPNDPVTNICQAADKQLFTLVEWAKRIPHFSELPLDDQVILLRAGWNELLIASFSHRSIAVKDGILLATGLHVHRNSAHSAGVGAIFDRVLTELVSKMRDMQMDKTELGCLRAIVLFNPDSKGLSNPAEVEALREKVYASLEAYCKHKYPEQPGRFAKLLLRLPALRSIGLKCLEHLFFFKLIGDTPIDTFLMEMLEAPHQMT
Procedure, shortened: (§2)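 Compounds tested as ten-point five-fold dilution series for 18-24 h on transiently transfected HEK293T cells carrying TRE-driven luciferase plus RXR and either THR alpha or beta expression plasmids. Read-out by One-Glo luminescence, expressed as percent agonism relative to negative and positive controls.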

[4] = biological target: T4, THR alpha (Homo sapiens, UniProt P10827); test: HEK293T THR alpha/RXR luciferase reporter assay (Assay 2); format: cell-based; details: Assay 2; for Emax: HEK-293T, Table 5, THRα, read-out: Activity category Assay 2 THRα (Emax); for EC50: Table 4, THR-alpha, read-out: Activity category Assay 2 (EC50, THR-alpha agonist activity)
T4 construct: expressed in transfected cells; host or cells: HEK293T (ATCC CRL-3216)
T4 sequence (P10827 1-410 isoform P10827-2): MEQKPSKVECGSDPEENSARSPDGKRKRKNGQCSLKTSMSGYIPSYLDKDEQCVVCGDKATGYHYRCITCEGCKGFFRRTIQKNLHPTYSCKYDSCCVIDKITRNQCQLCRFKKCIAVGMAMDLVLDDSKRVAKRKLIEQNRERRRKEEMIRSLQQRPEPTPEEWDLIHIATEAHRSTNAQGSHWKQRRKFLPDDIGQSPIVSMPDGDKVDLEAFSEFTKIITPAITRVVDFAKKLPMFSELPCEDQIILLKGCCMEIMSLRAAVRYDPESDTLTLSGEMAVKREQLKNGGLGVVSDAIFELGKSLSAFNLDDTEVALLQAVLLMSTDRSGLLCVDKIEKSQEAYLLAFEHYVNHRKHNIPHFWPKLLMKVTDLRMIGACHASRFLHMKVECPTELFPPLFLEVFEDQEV
T4 sequence (P19793 1-462 partner): T3 sequence (P19793 1-462 partner)
Procedure, shortened: as §2

Row | Compound | EC50 [1] | Emax [1] | EC50 [2] | Emax [2] | Emax [3] | EC50 [3] | Emax [4] | EC50 [4] | Emax ([1]; Table 5, Assay 1, THRβ) | Emax ([3]; Table 5, Assay 2, THRβ)
1 | COC(=O)c1c[nH]c2ccc(Oc3c(Cl)cc(-n4nc(C#N)c(=O)[nH]c4=O)cc3Cl)cc12 [Compound 4, methyl 5-[2,6-dichloro-4-(6-cyano-3,5-dioxo-4H-1,2,4-triazin-2-yl)phenoxy]-1H-indole-3-carboxylate] | < 50 nM | < 50% | > 25000 nM | < 50% | > 75% | 1000 to 10000 nM | 50 to 75% | > 10000 nM | – | –
2 | Cc1cc(-c2cc(Oc3c(Cl)cc(-n4nc(N)c(=O)[nH]c4=O)cc3Cl)n[nH]c2=O)ccc1Cl [Compound 116] | 50 to 250 nM | – | > 25000 nM | < 50% | – | 50 to 250 nM | < 50% | > 10000 nM | < 50% | < 50%
3 | Nc1nn(-c2cc(Cl)c(Oc3cc(-c4cccc(F)c4)c(=O)[nH]n3)c(Cl)c2)c(=O)[nH]c1=O [Compound 69, 6-Amino-2-(3,5-dichloro-4-((5-(3-fluorophenyl)-6-oxo-1,6-dihydropyridazin-3-yl)oxy)phenyl)-1,2,4-triazine-3,5(2H,4H)-dione] | 50 to 250 nM | – | 250 to 1000 nM | < 50% | – | 50 to 250 nM | 50 to 75% | 50 to 250 nM | < 50% | 50 to 75%
4 | CC(C)c1n[nH]c2nnc(Oc3c(Cl)cc(-n4nc(N)c(=O)[nH]c4=O)cc3Cl)cc12 [Compound 75, 6-amino-2-(3,5-dichloro-4-((3-isopropyl-1H-pyrazolo[3,4-c]pyridazin-5-yl)oxy)phenyl)-1,2,4-triazine-3,5 (2H,4H)-dione] | < 50 nM | – | 50 to 250 nM | > 75% | – | < 50 nM | > 75% | 250 to 1000 nM | > 75% | > 75%
5 | Nc1nn(-c2cc(Cl)c(Oc3cc(C45CC(C4)C5)c(=O)[nH]n3)c(Cl)c2)c(=O)[nH]c1=O [Compound 95] | 50 to 250 nM | – | 250 to 1000 nM | < 50% | – | 50 to 250 nM | < 50% | 250 to 1000 nM | < 50% | > 75%
6 | C[C@H]1C[C@@H](c2cc(Oc3c(Cl)cc(-n4nc(N)c(=O)[nH]c4=O)cc3Cl)n[nH]c2=O)C1 (single isomer, unassigned) [Compound 86-B, 6-Amino-2-(3,5-dichloro-4-((5-((1s,3s)-3-methylcyclobutyl)-6-oxo-1,6-dihydropyridazin-3-yl)oxy)phenyl)-1,2,4-triazine-3,5(2H,4H)-dione] | 50 to 250 nM | – | 1000 to 25000 nM | < 50% | – | 250 to 1000 nM | < 50% | 1000 to 10000 nM | < 50% | > 75%
7 | Cc1cccc(-c2cc(Oc3c(Cl)cc(-n4ncc(=O)[nH]c4=O)cc3Cl)n[nH]c2=O)c1 [Compound 139] | 50 to 250 nM | – | 50 to 250 nM | < 50% | – | < 50 nM | < 50% | 50 to 250 nM | < 50% | 50 to 75%
8 | CC1(C)C(=O)Nc2ccc(Oc3c(Cl)cc(-n4nc(N)c(=O)[nH]c4=O)cc3Cl)cc21 [Compound 82, 6-amino-2-[3,5-dichloro-4-[(3,3-dimethyl-2-oxo-1H-indol-5-yl)oxy]phenyl]-4H-1,2,4-triazine-3,5-dione] | < 50 nM | – | < 50 nM | > 75% | – | < 50 nM | > 75% | < 50 nM | > 75% | > 75%
9 | CC(C)c1cc(Oc2c(Br)cc(-n3nc(N)c(=O)[nH]c3=O)cc2Br)n[nH]c1=O [Compound 81, 6-Amino-2-(3,5-dibromo-4-((5-isopropyl-6-oxo-1,6-dihydropyridazin-3-yl)oxy)phenyl)-1,2,4-triazine-3,5(2H,4H)-dione] | < 50 nM | – | < 50 nM | 50 to 75% | – | < 50 nM | > 75% | < 50 nM | 50 to 75% | > 75%
10 | O=c1cnn(-c2cc(Cl)c(Oc3cc(-c4ccc5ccccc5c4)c(=O)[nH]n3)c(Cl)c2)c(=O)[nH]1 [Compound 92] | 50 to 250 nM | – | 1000 to 25000 nM | < 50% | – | 50 to 250 nM | < 50% | > 10000 nM | < 50% | < 50%
11 | Nc1nn(-c2cc(Cl)c(Oc3cc(-c4ccc5ncccc5c4)c(=O)[nH]n3)c(Cl)c2)c(=O)[nH]c1=O [Compound 128] | > 25000 nM | – | > 25000 nM | < 50% | – | > 10000 nM | < 50% | > 10000 nM | < 50% | < 50%
12 | CC1(C)C(=O)Nc2nnc(Oc3c(Cl)cc(-n4nc(C#N)c(=O)[nH]c4=O)cc3Cl)cc21 [Compound 74, 2-[3,5-dichloro-4-[(5,5-dimethyl-6-oxo-7H-pyrrolo[2,3-c]pyridazin-3-yl)oxy]phenyl]3,5-dioxo-1,2,4-triazine-6-carbonitrile] | 1000 to 25000 nM | – | 1000 to 25000 nM | < 50% | – | > 10000 nM | < 50% | > 10000 nM | 50 to 75% | < 50%
13 | Cc1c(-n2nc(N)c(=O)[nH]c2=O)cc(Cl)c(Oc2cc(C(C)C)c(=O)[nH]n2)c1Cl [Compound 35, 6-amino-2-[3,5-dichloro-4-[(5-isopropyl-6-oxo-1H-pyridazin-3-yl)oxy]-2-methyl-phenyl]-4H-1,2,4-triazine-3,5-dione] | 1000 to 25000 nM | – | 1000 to 25000 nM | 50 to 75% | – | 1000 to 10000 nM | < 50% | 1000 to 10000 nM | 50 to 75% | 50 to 75%
14 | Nc1nn(-c2cc(Cl)c(Oc3cc(-c4cccc(Cl)c4)c(=O)[nH]n3)c(Cl)c2)c(=O)[nH]c1=O [Compound 68, 6-Amino-2-(3,5-dichloro-4-((5-(3-chlorophenyl)-6-oxo-1,6-dihydropyridazin-3-yl)oxy)phenyl)-1,2,4-triazine-3,5(2H,4H)-dione] | < 50 nM | – | 50 to 250 nM | < 50% | – | < 50 nM | 50 to 75% | 50 to 250 nM | 50 to 75% | > 75%
15 | Cc1ccc(-c2cc(=O)[nH]nc2Oc2c(Cl)cc(-n3nc(N)c(=O)[nH]c3=O)cc2Cl)cc1C [Compound 113] | 50 to 250 nM | – | 250 to 1000 nM | < 50% | – | 250 to 1000 nM | < 50% | > 10000 nM | < 50% | < 50%
